assay: Human HepG2 cell viability assay in 384 well format; assay type: toxicity, cell-based; design: dose 125 nL, time 70.5 hour; concentration not given beside the values; details: HepG2 cells, read-out: Inhibition

| Structure (SMILES) | cytotoxicity at 70.5 h |
| --- | --- |
| Cn1cccc(NC(=O)COc2ccc(Br)cc2)c1=O | 21.8% |
| COCCN(CCN(C)C)C(=O)NC1CCc2ccccc2C1 (configuration not stated) | -5.75% |
| CCOc1cccc(C(=O)N(CCC#N)Cc2ccccn2)c1 | -0.366% |
| NC(=O)C1CCCN1Cc1cccc(NC(=O)c2ccsc2)c1 (configuration not stated) | -11.3% |
| COc1cc(-c2cc(NC3CCCC3)nc3[nH]ccc23)nc(N)n1 | -11.3% |
| CC(NC(=O)CNS(C)(=O)=O)c1ccccc1Oc1ccccc1 (configuration not stated) | -7.15% |
| COc1cccc(-n2c(SCC(=O)O)nnc2-c2cn[nH]c2)c1 | -3.32% |
| CN(C)C(=O)N1CCN(Cc2cnc(-c3ccsc3)s2)CC1 | -11.7% |
| Cc1cc(Cl)ccc1C(=O)C1CCCN(Cc2cnc(N(C)C)s2)C1 (configuration not stated) | -5.77% |
| O=C(c1ccc(O)c(Cl)c1)N1CCC(c2n[nH]c(C3CC3)n2)CC1 | 36.5% |
| Cc1ccc(CN2CCN(C(=O)c3ccc(CO)cc3)C(C)C2=O)cc1 (configuration not stated) | -17.6% |
| O=C(NC1CCC1)C1=NOC2(CCN(Cc3ccccc3)C2)C1 (configuration not stated) | -10.6% |
| O=C(C1CC1)N1CC[C@H](c2nc3ccccc3o2)C1 | 5.84% |
| Cc1cncc(C(=O)N2C[C@@H]3CN(S(C)(=O)=O)CCO[C@@H]3C2)c1 | 19.6% |
| Cc1nnc(C(C)N2CCN(Cc3noc(C(C)(C)C)n3)CC2)o1 (configuration not stated) | -3.37% |
| CCCn1ncc(-c2ccnc(NC3CCCc4ccccc43)n2)c1C (configuration not stated) | 55.9% |
| O=C1CNc2ncnc(Nc3cnn(Cc4ccc(F)cc4)c3)c2N1 | -12.2% |
| CCNc1nc2c(s1)C(=O)CN(C(=O)NCc1ccccc1)C2 | -0.493% |
| O=C(c1cccnc1)N1CCN(CC2CC2)c2ncccc2C1 | 0.755% |
| Cc1nnc(CN2C[C@H](NC(=O)C3CCOCC3)[C@@H](C(C)C)C2)s1 | -6.56% |
| COc1cc(F)ccc1NC(=O)NC(C)C(=O)NC(C)(C)C (configuration not stated) | -4.93% |
| COc1cccc(OCC(=O)NS(=O)(=O)c2cc(F)ccc2F)c1 | -5.46% |
| O=S(=O)(NCC(O)c1ccc(C(F)(F)F)cc1)C1CC1 (configuration not stated) | 12.5% |

| Structure (SMILES) | cytotoxicity at 70.5 h |
| --- | --- |
| Cc1nn(C)cc1-c1ccnc(N2CCSCC2)n1 | -1.53% |
| c1ccc(CN2Cc3nccn3CC(Cn3cccn3)C2)nc1 (configuration not stated) | -3.5% |
| Cc1c[nH]nc1C1CCN(S(=O)(=O)N(C)C)CC1 | 0.689% |
| CS(=O)(=O)NCC1CCN(Cc2cc3ccccc3[nH]c2=O)C1 (configuration not stated) | -3.86% |
| O=C(c1cccc2[nH]ncc12)N1CCCC1c1noc(C2CC2)n1 (configuration not stated) | -18.3% |
| CCS(=O)(=O)c1ccc2c(c1)OCCCO2 | 0.078% |
| CCNC(c1ccc(C(C)C)cc1)c1cccnc1 (configuration not stated) | 2.26% |
| COc1cc(-c2nc3c([nH]2)CCCNC3=O)ccc1O | 5.51% |
| Cc1noc(C)c1CN(C)C(=O)C1CCN(S(N)(=O)=O)CC1 | -1.71% |
| COCCNC(=O)Cn1c(-c2ccco2)cc2cccnc21 | -8.41% |
| COc1cccc(OC2CN(C(=O)CCn3cnc4ccccc43)C2)c1 | 29.2% |
| Cn1c(N2CCOCC2)nc2cc(C(=O)N3CCC(O)(CO)C3)ccc21 (configuration not stated) | -2.61% |
| CC(C)CN1C(=O)CO[C@@H]2CN(C(=O)NC(C)C)C[C@H]21 | -2.72% |
| CN(CC(=O)N1CCOCC(CO)C1)Cc1ccccn1 (configuration not stated) | -12.5% |
| COc1ccc(C(=O)NC2CC2)c(OC2CCN(C(C)CO)CC2)c1 (configuration not stated) | 0.736% |
| Cc1cc2nc(SCC(=O)N3CCCC3)n(C(C)C)c(=O)c2[nH]1 | 14.9% |
| CN(CC(=O)Nc1cc(-c2cc(Cl)cc(Cl)c2)[nH]n1)S(C)(=O)=O | -5.73% |
| CCOc1c(F)cccc1C(=O)N(c1cccnc1)C(C)C | -3.95% |
| OCCN(CCO)Cc1ccc(Br)c2cccnc12 | -1.86% |
| N#Cc1nc(COc2ccc3c(c2)OCO3)oc1NC1CCCCC1 | -28.5% |
| COc1ccc2[nH]nc(CN3CCN(Cc4cccc(F)c4)CC3)c2c1 | 4.06% |
| CC(=O)CN1CCC2(CC1)c1ccccc1[C@@H](N1CCSCC1)[C@@H]2O | -5.27% |
| COc1cccc(CN2CCCC2c2ccc[nH]2)c1 (configuration not stated) | 0.927% |

| Structure (SMILES) | cytotoxicity at 70.5 h |
| --- | --- |
| CN(C)C(CNC(=O)c1cccc(-n2cnnn2)c1)c1ccccc1Cl (configuration not stated) | -2.81% |
| O=C(c1ccnnc1)N1CC[C@]2(C[C@H](Oc3ncccc3F)CO2)C1 | -5.53% |
| CCC(=O)N1CCC2(CCN(Cc3cccc(F)c3)CC2)CC1 | -1.29% |
| NC(=O)CCC1CCCN(c2ccnc3cc(F)ccc23)C1 (configuration not stated) | -12.1% |
| Cc1cc(CC(C)Nc2nc(C3CCCC3)nc3c2cnn3C)[nH]n1 (configuration not stated) | -13% |
| CC(C)(C)CN1Cc2cc3c(cc2NCCC1=O)OCO3 | 23.7% |
| CN(C)S(=O)(=O)N1C[C@@H]2CC[C@H](C1)N(Cc1ccc(F)c(F)c1)C2 | 4.72% |
| COc1ccc(F)cc1C(=O)N(C)Cc1cc(C)on1 | -15.7% |
| COc1ccccc1C1(C(=O)N2CCCC(c3cc(C)[nH]n3)C2)CC1 (configuration not stated) | -0.122% |
| CC(=O)N1N=C(Cc2ccccc2)OC1C(=O)NCC(C)C (configuration not stated) | -1.89% |
| CN(C)C(=O)CN1CCC2(COCc3cnc(N4CCOCC4)nc32)C1 (configuration not stated) | 19.8% |
| COC[C@@]12CC[C@@H](N3CCOCC3)C[C@H]1CCN(c1ncccc1F)C2 | -6.47% |
| COc1ccc2nnc(CCC(=O)Nc3nc4c(s3)CCCCC4)n2n1 | -17.3% |
| O=C(c1cnoc1)N1CCC[C@]2(C[C@@H](OCc3ccccn3)CO2)C1 | -9.96% |
| CS(=O)(=O)N1CCC(CSc2ccccc2)C1 (configuration not stated) | -13.4% |
| CN(Cc1ccc(Cl)s1)C(=O)CN(C)C1CCc2ccccc21 (configuration not stated) | -13.1% |
| O=C1COC2(CCN(C(=O)c3ccco3)CC2)CN1Cc1cccnc1 | -8.01% |
| Cc1cccc(NC2CCN(C(=O)Nc3ccc(F)cc3C)CC2)n1 | -5.61% |
| CCOc1ccc(-n2nc(C)c(CC(C)=O)c2C)cc1C(N)=O | -2.04% |
| N#Cc1ccc(N2CCCC3(CCC(=O)N3CC3CC3)CC2)nc1 (configuration not stated) | -0.642% |
| CC(C)c1ccc(CCC(=O)N(C)C2CCN(C)C2=O)cc1 (configuration not stated) | -1.43% |
| Cc1ccc(NCc2ncc(C(C)(C)C)o2)c(Cl)c1 | 1.61% |
| Cc1cc(C)nc(C2CCN(C(=O)c3cncnc3C)C2)n1 (configuration not stated) | 12.9% |

| Structure (SMILES) | cytotoxicity at 70.5 h |
| --- | --- |
| CSc1ccsc1C(=O)NCCNC(=O)C1CC1 | -6.91% |
| Cc1ccc(C(=O)N(C)CC(=O)Nc2cccc(C)n2)cn1 | -6.04% |
| O=C(COC[C@H]1CC[C@H]2[C@H](CCN2c2ncccn2)O1)N1CCCC1 | -3.63% |
| CCc1noc(CN(C)CCC(=O)Nc2ccc(Cl)cc2)n1 | -0.958% |
| COc1ncccc1-c1cc(C(N)=O)ccn1 | 19.5% |
| COCCNC(=O)N1CCSC2(CCCCC2)C1 | -4.21% |
| O=C(CCc1nc2ccccc2[nH]1)Nc1ccc2c(c1)OCC(=O)N2 | -11.6% |
| CCS(=O)(=O)N1CCOCC2(CCN(c3ccccn3)C2)C1 (configuration not stated) | -11.4% |
| COC(=O)c1cc2c(OC)c(OC)c(OC)cc2[nH]1 | -19.4% |
| Cc1ccc(C(=O)NCC2(O)CCOCC2)cc1F | -1.08% |
| COc1ccc(-c2cc(C3CCCCCN3S(=O)(=O)N(C)C)on2)cc1 (configuration not stated) | 8.12% |
| O=C(c1ccco1)N1C[C@H]2CCCN(C(=O)c3ccsc3)[C@H]2C1 | -16.2% |
| Cc1cccc(CN2CC[C@H]3[C@H]2CCN3Cc2cnn(C)c2)n1 | 30.5% |
| O=C1NCCCCC1NS(=O)(=O)N1CCCCC1 (configuration not stated) | -10.6% |
| CCn1cnnc1CNC(=O)N1CCN(c2nc(C)c(C)s2)CC1 | -3.66% |
| O=C(CN1CCCC(c2ncc[nH]2)C1)NCC(F)(F)F (configuration not stated) | 18.7% |
| COc1cccc(CC(=O)N2CCC3(CC2)OCCCC3O)c1OC (configuration not stated) | -7.1% |
| CNC[C@H]1CC[C@H](c2cc(CN(C)C(=O)c3cnccn3)n(C)n2)CC1 | -8.17% |
| CCC(=O)NCC(=O)NCC1CCN(c2cc(Cl)ccc2C)C1 (configuration not stated) | -1.96% |
| CS(=O)(=O)NC[C@H]1Cn2c(-c3ccccc3)cnc2CO1 | -7.36% |
| CC(C)=CCC1(CO)CCCN(Cc2cnc(N3CCOCC3)nc2)C1 (configuration not stated) | -6.39% |
| CN(C)C(=O)COCC1CN(CC2CCOCC2)Cc2ncn(C)c21 (configuration not stated) | -1.41% |
| COCCNC(=O)[C@@]12CCO[C@@H]1CCN(Cc1ccncc1)C2 | -10.2% |

| Structure (SMILES) | cytotoxicity at 70.5 h |
| --- | --- |
| Oc1cc(C2CCCCN2Cc2cccs2)nc(-c2ccncc2)n1 (configuration not stated) | -11.8% |
| Cc1oc(C(=O)Nc2ccccc2F)cc1S(N)(=O)=O | -10.9% |
| CN(C)CC1(O)CCCN(C(=O)CCc2nc3cccnc3n2C)C1 (configuration not stated) | -9.56% |
| Cc1cc(CNc2cc(-c3ccoc3C)nn2CCO)c(C)o1 | -12.2% |
| COc1ccc(CC(=O)N2CCCN(c3ccc(C#N)cc3)CC2)cc1 | -2.17% |
| CCOCC(=O)N1CCC2(CC1)CC(c1ccccc1)CO2 (configuration not stated) | -2.96% |
| COCC(NC(=O)NCc1cccc(Cl)c1)c1ccco1 (configuration not stated) | -5.77% |
| CC(C)CN1CCC(c2nc3ccc(NC(C)C)cn3n2)CC1 | -13.1% |
| O=C(c1ccccc1F)N1CCOC(c2nc(-c3ncccn3)no2)C1 (configuration not stated) | -2.38% |
| CC1CN(C(=O)c2ccc(C(N)=O)cc2)c2ccc(F)cc2O1 (configuration not stated) | 2.67% |
| CC(=O)N[C@H](C)c1c(-c2ccc(Cl)cc2)noc1C(=O)O | -6.07% |
| Cc1ccc2c(c1)nc1n2[C@@H](CNC(=O)c2cncnc2)COC1 | -2.41% |
| CC(C)c1nc(C2CCCN(C(=O)CCc3cscn3)C2)no1 (configuration not stated) | -2.82% |
| Cc1cnn(CC2CCCN2C(=O)c2ccc3[nH]nnc3c2)c1 (configuration not stated) | 17.5% |
| CCCC(C)(C)NC(=O)c1ccc(CC2CC(=O)NC2=O)cc1 (configuration not stated) | 0.713% |
| CN(Cc1ccco1)C(=O)Nc1cc(C(F)(F)F)c[nH]c1=O | -14.9% |
| CC(C)COC(=O)N1CCCN(C(C)c2nc(C(C)C)no2)CC1 (configuration not stated) | -3.98% |
| COCC(=O)N1C[C@H]2CN(Cc3cccc(F)c3)C(=O)[C@H]2C1 | 8.07% |
| Cc1nc(C)n(CC2CCCN(Cc3cc(C#N)ccc3F)C2)n1 (configuration not stated) | 0.508% |
| Cn1nccc1-c1ccc2nc(C3CCN(CCO)CC3)nn2c1 | -2.61% |
